This note sets out measurements from paper PMC10504751, “Chalcone/1,3,4-Oxadiazole/Benzimidazole hybrids as novel anti-proliferative agents inducing apoptosis and inhibiting EGFR & BRAFV^600E” (BMC Chemistry, 2023).

Holding throughout (test): NCI one-dose SRB anti-proliferative screen
What all share (assay type): cell-based

In experiment [1] the test system is A498. The settings on record: Homo sapiens; A498, Renal cancer; NCI one dose; read-out: Cell growth inhibition %. The procedure, abridged: (§1)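 Sulforhodamine B colorimetric read-out of growth inhibition across the NCI 60-cell-line, nine-subpanel screen. Each compound was given at one 10 µM dose.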
Experiment [2] has as its system BT-549. The note with it: Homo sapiens; BT-549, Breast cancer; NCI one dose; read-out: Cell growth inhibition %. The procedure, abridged:
as §1

In experiment [3] the test system is MDA-MB-435. The settings on record: Homo sapiens; MDA-MB-435, Melanoma; NCI one dose; read-out: Cell growth inhibition %. Summed up: as §1
Experiment [4] relates to NCI-H322M. The settings on record: Homo sapiens; NCI-H322M, Non-Small Cell Lung Cancer; NCI one dose; read-out: Cell growth inhibition %. The procedure, abridged:
as §1

Experiment [5] has as its system MCF7. The note with it: Homo sapiens; MCF7, Breast cancer; NCI one dose; read-out: Cell growth inhibition %. The procedure, abridged: as §1
Experiment [6] has as its system SNB-19. The settings on record: Homo sapiens; SNB-19, CNS Cancer; NCI one dose; read-out: Cell growth inhibition %. Summed up:
as §1

Experiment [7] deals with U251. The note with it: Homo sapiens, U-251; U251, CNS Cancer; NCI one dose; read-out: Cell growth inhibition %. Summed up:
as §1

Experiment [8] deals with IGROV1. The settings on record: Homo sapiens, IGROV-1; IGROV1, Ovarian Cancer; NCI one dose; read-out: Cell growth inhibition %. Summed up:
as §1

Experiment [9] relates to HOP-62. The note with it: Homo sapiens; HOP-62, Non-Small Cell Lung Cancer; NCI one dose; read-out: Cell growth inhibition %. The procedure, abridged:
as §1

The subject of experiment [10] is MDA-MB-231/ATCC. The settings on record: Homo sapiens; MDA-MB-231/ATCC, Breast cancer; NCI one dose; read-out: Cell growth inhibition %. The procedure, abridged:
as §1

Experiment [11] has as its system OVCAR-8. The settings on record: Homo sapiens; OVCAR-8, Ovarian Cancer; NCI one dose; read-out: Cell growth inhibition %. The procedure, abridged:
as §1

Experiment [12] relates to NCI-H23. The note with it: Homo sapiens; NCI-H23, Non-Small Cell Lung Cancer; NCI one dose; read-out: Cell growth inhibition %. The procedure, abridged:
as §1

Experiment [13] has as its system UO-31. The note with it: Homo sapiens; UO-31, Renal cancer; NCI one dose; read-out: Cell growth inhibition %. Summed up:
as §1

The test system of experiment [14] is 786-0. The settings on record: Homo sapiens; 786-0, Renal cancer; NCI one dose; read-out: Cell growth inhibition %. The procedure, abridged: as §1
The subject of experiment [15] is SR. The note with it: Homo sapiens; SR, Leukemia; NCI one dose; read-out: Cell growth inhibition %. Summed up: as §1
The test system of experiment [16] is NCI-H522. The settings on record: Homo sapiens; NCI-H522, Non-Small Cell Lung Cancer; NCI one dose; read-out: Cell growth inhibition %. Summed up: as §1
In experiment [17] the test system is SK-MEL-5. The settings on record: Homo sapiens; SK-MEL-5, Melanoma; NCI one dose; read-out: Cell growth inhibition %. The procedure, abridged: as §1
In experiment [18] the test system is SF-295. The note with it: Homo sapiens; SF-295, CNS Cancer; NCI one dose; read-out: Cell growth inhibition %. The procedure, abridged: as §1
Experiment [19] deals with SK-OV-3. The note with it: Homo sapiens; SK-OV-3, Ovarian Cancer; NCI one dose; read-out: Cell growth inhibition %. The procedure, abridged:
as §1

Experiment [20] concerns HCC-2998. The settings on record: Homo sapiens; HCC-2998, Colon cancer; NCI one dose; read-out: Cell growth inhibition %. The procedure, abridged:
as §1

Experiment [21] relates to TK-10. The note with it: Homo sapiens; TK-10, Renal cancer; NCI one dose; read-out: Cell growth inhibition %. The procedure, abridged:
as §1

Experiment [22] concerns EKVX. The settings on record: Homo sapiens; EKVX, Non-Small Cell Lung Cancer; NCI one dose; read-out: Cell growth inhibition %. The procedure, abridged:
as §1

Experiment [23] deals with CAKI-1. The note with it: Homo sapiens; CAKI-1, Renal cancer; NCI one dose; read-out: Cell growth inhibition %. The procedure, abridged: as §1
Experiment [24] deals with NCI-H226. The settings on record: Homo sapiens; NCI-H226, Non-Small Cell Lung Cancer; NCI one dose; read-out: Cell growth inhibition %. The procedure, abridged: as §1

As for `COc1cc(/C=C/C(=O)c2ccc(NC(=O)CSc3nnc(-c4ccc5[nH]c(-c6ccccc6)nc5c4)o3)cc2)cc(OC)c1OC` [Compound 7e, 2-{5-[2-Phenyl-1 H-benzo[d]imidazol-5-yl]-1,3,4-oxadiazol-2-ylthio}-N-{4-[(E)-3-(3,4,5-trimethoxyphenyl)acryloyl]phenyl}acetamide], the inhibition at 10 µM in [1] was found to be 15.6%; in experiment [2], 18.4%; in [3], 5.93%; in experiment [4], 3.06%; in [5] it was 56.1%; in [6], 15.6%. Moreover, the inhibition at 10 µM turned out to be 19.4% in [7]; 2.76% in experiment [8]; 0% in [9]; 6.4% in experiment [10]; 2.93% in [11]; 7.28% in experiment [12]. The inhibition at 10 µM in experiment [13] is 10.6%; in experiment [14] it was 24.6%; in experiment [15] it was 63.2%; in [16], 4.71%; in [17], 7.81%; in [18], 0%. Moreover, the inhibition at 10 µM is 0% in experiment [19]; 0% in experiment [20]; 0% in [21]; 0.96% in experiment [22]; 0% in experiment [23]; 0.66% in experiment [24].
For `COc1ccc(/C=C/C(=O)c2ccc(NC(=O)CSc3nnc(-c4ccc5[nH]c(-c6ccccc6)nc5c4)o3)cc2)cc1OC` [Compound 7d, 2-{5-[2-Phenyl-1 H-benzo[d]imidazol-5-yl]-1,3,4-oxadiazol-2-ylthio}-N-{4-[(E)-3-(3,4-dimethoxyphenyl)acryloyl]phenyl}acetamide], the inhibition at 10 µM in [1] worked out at 14.3%; in experiment [2], 10.4%; in experiment [3], 0%; in experiment [4] it was 0%; in experiment [5], 27.3%; in [6] it was 3.18%. The inhibition at 10 µM was 5.02% in experiment [7]; 0% in experiment [8]; 0% in [9]; 0% in [10]; 0% in experiment [11]; 0% in [12]. In addition, the inhibition at 10 µM in experiment [13] was determined as 11%; in experiment [14], 9.58%; in [15], 4.34%; in [16], 3.75%; in experiment [17] it was 0%; in [18], 0%. Further, the inhibition at 10 µM in experiment [19], in experiment [20], in [21], in experiment [22], in [23] and in experiment [24] was 0% throughout.
As for `O=C(CSc1nnc(-c2ccc3[nH]c(-c4ccccc4)nc3c2)o1)Nc1ccc(C(=O)/C=C/c2ccccc2)cc1` [Compound 7a, 2-{5-[2-Phenyl-1 H-benzo[d]imidazol-5-yl]-1,3,4-oxadiazol-2-ylthio}-N-{4-[(E)-3-phenylacryloyl]phenyl}acetamide], the inhibition at 10 µM stood at 4.13% in experiment [1]; 3.16% in experiment [2]; 0% in experiment [3]; 0% in experiment [4]; 12.4% in [5]; 0.06% in experiment [6]. Moreover, the inhibition at 10 µM in experiment [7] came out at 1.83%; in [8] it was 4.17%; in [9] it was 0%; in experiment [10] it was 0%; in [11], 0.04%; in [12], 0%. Besides, the inhibition at 10 µM turned out to be 12.6% in experiment [13]; 0% in experiment [14]; 0% in experiment [15]; 6.57% in experiment [16]; 1.68% in [17]; 0% in experiment [18]. The inhibition at 10 µM in experiment [19], in experiment [20], in [21], in experiment [22], in [23] and in experiment [24] was 0% throughout.
For `COc1ccc(-c2nc3cc(-c4nnc(SCC(=O)Nc5ccc(C(=O)/C=C/c6ccccc6)cc5)o4)ccc3[nH]2)cc1` [Compound 7k, 2-{5-[2-(4-Methoxyphenyl)-1 H-benzo[d]imidazol-5-yl]-1,3,4-oxadiazol-2-ylthio}-N-{4-[(E)-3-phenylacryloyl]phenyl}acetamide], the inhibition at 10 µM in [1] turned out to be 19.9%; in [2], 38.1%; in experiment [3], 33.6%; in [4], 0%; in experiment [5], 50.3%; in [6], 0%. Further, the inhibition at 10 µM in experiment [7] was 33.2%; in experiment [8], 2.63%; in experiment [9], 0%; in experiment [10], 22.5%; in [11], 28.2%; in [12], 16.9%. For the same compound, the inhibition at 10 µM in [13] is 33.8%; in experiment [14] it was 41.2%; in experiment [15] it was 51.6%; in experiment [16], 17.3%; in experiment [17], 49.2%; in experiment [18] it was 17.8%. Also, the inhibition at 10 µM in [19] turned out to be 0%; in [20] it was 0%; in [21] it was 0%; in experiment [22] it was 13.9%; in experiment [23], 14.1%; in experiment [24], 35.4%.
As for `COc1ccc(/C=C/C(=O)c2ccc(NC(=O)CSc3nnc(-c4ccc5[nH]c(-c6ccccc6)nc5c4)o3)cc2)cc1` [Compound 7c, 2-{5-[2-Phenyl-1 H-benzo[d]imidazol-5-yl]-1,3,4-oxadiazol-2-ylthio}-N-{4-[(E)-3-(4-methoxyphenyl)acryloyl]phenyl}acetamide], the inhibition at 10 µM in experiment [1] was 22.6%; in [2] it was 18.7%; in [3], 0%; in experiment [4], 0%; in experiment [5], 27.5%; in [6] it was 7.28%. Moreover, the inhibition at 10 µM in experiment [7] came to 17.2%; in experiment [8], 0%; in experiment [9] it was 0%; in experiment [10], 0%; in [11], 9.58%; in experiment [12] it was 7.79%. For the same compound, the inhibition at 10 µM amounted to 8.67% in [13]; 22.6% in experiment [14]; 12.7% in [15]; 8.81% in experiment [16]; 16.8% in [17]; 1.65% in experiment [18]. Also, the inhibition at 10 µM in [19] stood at 0%; in [20] it was 0%; in [21], 0%; in [22], 0%; in experiment [23], 0%; in experiment [24], 2.2%.
